Our source for the Kd values is paper PMC6685981, “Avenanthramide A triggers potent ROS-mediated anti-tumor effects in colorectal cancer by directly targeting DDX3” (Cell Death & Disease, 2019).

The structures appear in SMILES notation.

This experiment has as its target T1, DDX3 (Homo sapiens, UniProt O00571).
T1 construct: gene DDX3X; full length, His-tagged DDX3
The experiment is described as follows: SPR (Biacore T200) with immobilized purified His-DDX3; also malachite green ATPase inhibition at […]. Format: binding.

T1 sequence (O00571 whole entry): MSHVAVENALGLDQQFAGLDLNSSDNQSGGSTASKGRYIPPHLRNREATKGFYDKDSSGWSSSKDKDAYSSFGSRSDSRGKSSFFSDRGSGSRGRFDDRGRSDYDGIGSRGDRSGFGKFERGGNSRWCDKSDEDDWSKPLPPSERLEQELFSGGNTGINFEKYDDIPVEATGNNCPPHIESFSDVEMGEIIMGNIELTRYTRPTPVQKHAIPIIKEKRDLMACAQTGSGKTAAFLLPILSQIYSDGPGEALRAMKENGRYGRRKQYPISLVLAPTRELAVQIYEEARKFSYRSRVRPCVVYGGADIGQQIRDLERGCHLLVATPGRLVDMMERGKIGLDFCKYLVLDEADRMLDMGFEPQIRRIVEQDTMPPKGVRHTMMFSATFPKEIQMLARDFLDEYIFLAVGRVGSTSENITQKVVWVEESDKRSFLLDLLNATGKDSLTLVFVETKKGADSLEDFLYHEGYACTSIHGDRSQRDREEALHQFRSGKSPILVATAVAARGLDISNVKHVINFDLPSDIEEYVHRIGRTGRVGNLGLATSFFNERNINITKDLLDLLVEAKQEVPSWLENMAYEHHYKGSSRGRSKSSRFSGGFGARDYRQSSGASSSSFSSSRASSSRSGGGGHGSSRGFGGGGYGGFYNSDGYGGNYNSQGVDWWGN

As usually defined, the Kd is the free concentration of one partner at which half of the binding sites on the other are occupied at equilibrium, for simple one-to-one binding. High values mean lower affinity, low ones higher affinity. `O=C(/C=C/c1ccc(O)cc1)Nc1ccc(O)cc1C(=O)O` [AVN A, Avenanthramide A] showed an equilibrium dissociation constant (Kd) of 8.8 µM.
